Measured values as given in patent US7759366B2 (Sanofi-Aventis, priority 2006, dated 2010).

What follows are compounds tested against hCB1R (Homo sapiens, UniProt P21554) (assay: In vitro functional assay (FLIPR, intracellular Ca2+) with recombinant HEK293 cells, CB1). Conditions: recombinant HEK293 cells expressing CB1 and Galpha16; 20 min preincubation, then reference agonist; Ca2+ change; read-out: hCB1R: FLIPR; IC50.
Chain of hCB1R (P21554 whole entry): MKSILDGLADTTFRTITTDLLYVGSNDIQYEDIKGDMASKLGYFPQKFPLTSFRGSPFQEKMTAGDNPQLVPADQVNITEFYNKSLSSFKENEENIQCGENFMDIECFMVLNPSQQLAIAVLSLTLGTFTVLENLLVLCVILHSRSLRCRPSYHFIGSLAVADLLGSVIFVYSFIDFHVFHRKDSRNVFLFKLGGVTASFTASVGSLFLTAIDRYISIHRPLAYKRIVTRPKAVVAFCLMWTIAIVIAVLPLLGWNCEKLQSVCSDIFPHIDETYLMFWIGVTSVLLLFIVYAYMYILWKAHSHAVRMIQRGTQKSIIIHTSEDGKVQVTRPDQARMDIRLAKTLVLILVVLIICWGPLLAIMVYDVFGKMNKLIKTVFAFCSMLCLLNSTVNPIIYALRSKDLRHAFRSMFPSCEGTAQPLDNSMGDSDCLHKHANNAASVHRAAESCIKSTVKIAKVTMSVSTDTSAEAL
Assay type: cell-based
Set-up: expressed in transfected cells; host or cells: HEK293
Source text: In Vitro Functional Assays with Recombinant Cells:

SMILES	IC50 [nM]
CC1(C)C(=O)N(c2ccc(C#N)c(C(F)(F)F)c2)C(=O)N1Cc1ccc(C(F)(F)F)cc1Nc1ccc(C(=O)O)cc1 [Example 107, 4-{2-[3-(4-cyano-3-trifluoromethylphenyl)-5,5-dimethyl-2,4-dioxoimidazolidin-1-ylmethyl]-5-trifluoromethylphenylamino}benzoic acid]	112
CC1(C)C(=O)N(c2ccc(C#N)c(C(F)(F)F)c2)C(=O)N1Cc1ccccc1Nc1ccc(N)cc1 [Example 113, 4-{3-[2-(4-Aminophenylamino)benzyl]-4,4-dimethyl-2,5-dioxoimidazolidin-1-yl}-2-trifluoromethylbenzonitrile]	4
CC(C)(C)OC(=O)c1ccc(Nc2cc(F)ccc2CN2C(=O)N(c3ccc(C#N)c(C(F)(F)F)c3)C(=O)C2(C)C)cc1 [Example 125, tert-butyl 4-{2-[3-(4-cyano-3-trifluoromethylphenyl)-5,5-dimethyl-2,4-dioxoimidazolidin-1-ylmethyl]-5-fluorophenylamino}benzoate]	110
CC(C)Oc1ccc(Nc2ccccc2CN2C(=O)N(c3ccc(C#N)c(C(F)(F)F)c3)C(=O)C2(C)C)cc1 [Example 127, 4-{3-[2-(4-isopropoxyphenylamino)benzyl]-4,4-dimethyl-2,5-dioxoimidazolidin-1-yl}-2-trifluoromethylbenzonitrile]	7
COc1ccc(CN2C(=O)N(c3ccc(C#N)c(C(F)(F)F)c3)C(=O)C2(C)C)c(Nc2ccc(C(=O)O)cc2)c1 [Example 130, 4-{2-[3-(4-cyano-3-trifluoromethylphenyl)-5,5-dimethyl-2,4-dioxoimidazolidin-1-ylmethyl]-5-methoxyphenylamino}benzoic acid]	32
CC1(C)C(=O)N(c2ccc(C#N)c(C(F)(F)F)c2)C(=O)N1Cc1ccc(Cl)cc1Nc1ccc(C(=O)O)cc1 [Example 131, 4-{5-chloro-2-[3-(4-cyano-3-trifluoromethylphenyl)-5,5-dimethyl-2,4-dioxoimidazolidin-1-ylmethyl]phenylamino}benzoic acid]	15
CC1(C)C(=O)N(c2ccc(C#N)c(C(F)(F)F)c2)C(=O)N1Cc1ccc(F)cc1Nc1ccc(C(=O)O)cc1 [Example 133, 4-{2-[3-(4-cyano-3-trifluoromethylphenyl)-5,5-dimethyl-2,4-dioxoimidazolidin-1-ylmethyl]-5-fluorophenylamino}benzoic acid]	10
CC1(C)C(=O)N(c2ccc(C#N)c(C(F)(F)F)c2)C(=O)N1Cc1ccccc1Nc1ccc(O)cc1 [Example 135, 4-{3-[2-(4-Hydroxyphenylamino)benzyl]-4,4-dimethyl-2,5-dioxoimidazolidin-1-yl}-2-trifluoromethylbenzonitrile]	1
COC(=O)C1=C[C@@H](O)[C@H](O)[C@@H](Oc2ccc(Nc3ccccc3CN3C(=O)N(c4ccc(C#N)c(C(F)(F)F)c4)C(=O)C3(C)C)cc2)O1 [Example 145, methyl (4R,5S,6S)-6-(4-{2-[3-(4-cyano-3-trifluoromethylphenyl)-5,5-dimethyl-2,4-dioxoimidazolidin-1-ylmethyl]phenylamino}phenoxy)-4,5-dihydroxy-5,6-dihydro-4H-pyran-2-carboxylate]	14
CC(=O)Nc1ccc(Nc2ccccc2CN2C(=O)N(c3ccc(C#N)c(C(F)(F)F)c3)C(=O)C2(C)C)cc1 [Example 148, N-(4-{2-[3-(4-Cyano-3-trifluoromethylphenyl)-5,5-dimethyl-2,4-dioxoimidazolidin-1-ylmethyl]phenylamino}phenyl)acetamide]	11
COC(=O)c1ccc(Nc2cc(F)ccc2CN2C(=O)N(c3ccc(F)c(C(F)(F)F)c3)C(=O)C2(C)C)cc1 [Example 154, Methyl 4-{5-fluoro-2-[3-(4-fluoro-3-trifluoromethylphenyl)-5,5-dimethyl-2,4-dioxoimidazolidin-1-ylmethyl]phenylamino}benzoate]	8
COC(=O)c1ccc(Nc2cc(F)ccc2CN2C(=O)N(c3ccc(C#N)c(C4CC4)c3)C(=O)C2(C)C)cc1 [Example 158, Methyl 4-{2-[3-(4-cyano-3-cyclopropylphenyl)-5,5-dimethyl-2,4-dioxoimidazolidin-1-ylmethyl]-5-fluorophenylamino}benzoate]	9
CC1(C)C(=O)N(c2ccc(C#N)c(C3CC3)c2)C(=O)N1Cc1ccc(F)cc1Nc1ccc(C(=O)O)cc1 [Example 159, 4-{2-[3-(4-cyano-3-cyclopropylphenyl)-5,5-dimethyl-2,4-dioxoimidazolidin-1-ylmethyl]-5-fluorophenylamino}benzoic acid]	2
CC1(C)C(=O)N(c2ccc(C#N)c(C(F)(F)F)c2)C(=O)N1Cc1ccccc1Nc1ccc(C(=O)NCCS(=O)(=O)O)cc1 [Example 164, 2-(4-{2-[3-(4-Cyano-3-trifluoromethylphenyl)-5,5-dimethyl-2,4-dioxoimidazolidin-1-ylmethyl]phenylamino}benzoylamino)ethanesulfonic acid]	137
Cc1cc(N2C(=O)N(Cc3ccc(F)cc3Nc3ccc(C(=O)O)cc3)C(C)(C)C2=O)ccc1C#N [Example 166, 4-{2-[3-(4-cyano-3-methylphenyl)-5,5-dimethyl-2,4-dioxoimidazolidin-1-ylmethyl]-5-fluorophenylamino}benzoic acid]	76
CC(C)(C)c1cc(N2C(=O)N(Cc3ccc(F)cc3Nc3ccc(C(=O)O)cc3)C(C)(C)C2=O)ccc1C#N [Example 169, 4-{2-[3-(3-tert-butyl-4-cyanophenyl)-5,5-dimethyl-2,4-dioxoimidazolidin-1-ylmethyl]-5-fluorophenylamino}benzoic acid]	9
CC1(C)C(=O)N(c2ccc(C#N)c(C(F)(F)F)c2)C(=O)N1Cc1ccccc1Nc1ccc(NS(C)(=O)=O)cc1 [Example 175, N-(4-{2-[3-(4-Cyano-3-trifluoromethylphenyl)-5,5-dimethyl-2,4-dioxoimidazolidin-1-ylmethyl]phenylamino}phenyl)methanesulfonamide]	9
COC(=O)CNc1ccc(Nc2ccccc2CN2C(=O)N(c3ccc(C#N)c(C(F)(F)F)c3)C(=O)C2(C)C)cc1 [Example 177, Methyl (4-{2-[3-(4-cyano-3-trifluoromethylphenyl)-5,5-dimethyl-2,4-dioxoimidazolidin-1-ylmethyl]phenylamino}phenylamino)acetate]	1
COC(=O)CN(CC(=O)OC)c1ccc(Nc2ccccc2CN2C(=O)N(c3ccc(C#N)c(C(F)(F)F)c3)C(=O)C2(C)C)cc1 [Example 178]	4
COc1ncc(Nc2ccccc2CN2C(=O)N(c3ccc(C#N)c(C(F)(F)F)c3)C(=O)C2(C)C)cn1 [Example 180, 4-{3-[2-(2-methoxypyrimidin-5-ylamino)benzyl]-4,4-dimethyl-2,5-dioxoimidazolidin-1-yl}-2-trifluoromethylbenzonitrile]	1
Cc1cnccc1Nc1ccccc1CN1C(=O)N(c2ccc(C#N)c(C(F)(F)F)c2)C(=O)C1(C)C [Example 181, 4-{4,4-dimethyl-3-[2-(3-methylpyridin-4-ylamino)benzyl]-2,5-dioxoimidazolidin-1-yl}-2-trifluoromethylbenzonitrile]	8
Cc1cc(N2C(=O)N(Cc3ccc(F)cc3Nc3ccc(C(N)=O)cc3)C(C)(C)C2=O)ccc1C#N [Example 190, 4-{2-[3-(4-Cyano-3-methylphenyl)-5,5-dimethyl-2,4-dioxoimidazolidin-1-ylmethyl]-5-fluorophenylamino}benzamide]	76
COC(=O)C1=C[C@@H](OC(C)=O)[C@H](OC(C)=O)[C@@H](Oc2ccc(Nc3ccccc3CN3C(=O)N(c4ccc(C#N)c(C(F)(F)F)c4)C(=O)C3(C)C)cc2)O1 [Example 197, methyl (4R,5S,6S)-4,5-diacetoxy-6-(4-{2-[3-(4-cyano-3-trifluoromethylphenyl)-5,5-dimethyl-2,4-dioxoimidazolidin-1-ylmethyl]phenylamino}phenoxy)-5,6-dihydro-4H-pyran-2-carboxylate]	19
CC1(C)C(=O)N(c2ccc(C#N)c(C(F)(F)F)c2)C(=O)N1Cc1ccccc1Nc1ccc(O)nn1 [Example 198, 4-{3-[2-(6-Hydroxypyridazin-3-ylamino)benzyl]-4,4-dimethyl-2,5-dioxoimidazolidin-1-yl}-2-trifluoromethylbenzonitrile trifluoroacetic acid]	23
CC1(C)C(=O)N(c2ccc(C#N)c(C(F)(F)F)c2)C(=O)N1Cc1ccccc1Nc1ccc2c(c1)C(=O)OC2 [Example 200, 4-{4,4-dimethyl-2,5-dioxo-3-[2-(3-oxo-1,3-dihydroisobenzofuran-5-ylamino)benzyl]imidazolidin-1-yl}-2-trifluoromethylbenzonitrile]	8
CC1(C)C(=O)N(c2ccc(C#N)c(C(F)(F)F)c2)C(=O)N1Cc1ccccc1Nc1ccc2c(c1)COC2=O [Example 201, 4-{4,4-dimethyl-2,5-dioxo-3-[2-(1-oxo-1,3-dihydroisobenzofuran-5-ylamino)benzyl]imidazolidin-1-yl}-2-trifluoromethylbenzonitrile]	5
CC1(C)C(=O)N(c2ccc(F)c(C(F)(F)F)c2)C(=O)N1Cc1ccc(F)cc1Nc1ccc2c(c1)C(=O)CCC2 [Example 204, 1-[4-Fluoro-2-(8-oxo-5,6,7,8-tetrahydronaphthalen-2-ylamino)benzyl]-3-(4-fluoro-3-trifluoromethylphenyl)-5,5-dimethylimidazolidine-2,4-dione]	46
CC1(C)C(=O)N(c2ccc(F)c(C(F)(F)F)c2)C(=O)N1Cc1ccc(F)cc1Nc1ccc2c(c1)C(=O)CC2 [Example 205, 1-[4-fluoro-2-(3-oxoindan-5-ylamino)benzyl]-3-(4-fluoro-3-trifluoromethylphenyl)-5,5-dimethylimidazolidine-2,4-dione]	17
CC1(C)C(=O)N(c2ccc(F)c(C(F)(F)F)c2)C(=O)N1Cc1ccc(F)cc1Nc1ccc2c(c1)CCC2=O [Example 206, 1-[4-fluoro-2-(1-oxoindan-5-ylamino)benzyl]-3-(4-fluoro-3-trifluoromethylphenyl)-5,5-dimethylimidazolidine-2,4-dione]	24
